Literature values, collected in patent publication US20010041964A1, “PHARMACOKINETIC-BASED DRUG DESIGN TOOL AND METHOD” (priority 1998, published 2001).

What was measured:
[1] = system: rabbit intestinal tissue (duodenum, jejunum, ileum, colon); details: donor concentration per compound; for Pe (cm/s) Colon: rabbit colon; for Pe (cm/s) Duodenum: rabbit duodenum; for Pe (cm/s) Ileum: rabbit ileum; for Pe (cm/s) Jejunum: rabbit jejunum
intestinal transport = details: permeability standard
[2] = not given; remark: listed apart in the source
[3] = not given; remark: listed apart in the source
[4] = oral, human

| Pe (cm/s) Colon [1] [cm/s] | Pe (cm/s) Duodenum [1] [cm/s] | Pe (cm/s) Ileum [1] [cm/s] | Pe (cm/s) Jejunum [1] [cm/s] | Transport mechanism (intestinal transport) | k12 (Appendix 2, mass-volume model) | k21 (Appendix 2, mass-volume model) | k_elim (Appendix 2, mass-volume model) | Plasma Kinetics Fluid Volume (Table 11) | Plasma Kinetics k12 (Table 11) | Plasma Kinetics k21 (Table 11) | Plasma Kinetics kelim (Table 11) | Bioavailability of fasted patients in clinical trials ([2]; fasted patients, Phase I studies) | Cmax (mcg/ml), Clinical 1505a ([2]; human clinical study 1505a) [µg/mL] | Tmax (hrs), Clinical 1505a ([2]; human clinical study 1505a) [h] | Cmax (mcg/ml), Clinical 1505b ([2]; human clinical study 1505b) [µg/mL] | Tmax (hrs), Clinical 1505b ([2]; human clinical study 1505b) [h] | In vivo biotransformation [3] | Absorption ([3]; in vivo) | Bioavailability in humans when orally administered [4] | SMILES |
| --- | --- | --- | --- | --- | --- | --- | --- | --- | --- | --- | --- | --- | --- | --- | --- | --- | --- | --- | --- | --- |
| 9.28e-06 | 4.55e-06 | 1.45e-05 | 1.02e-05 | Carrier-mediated Influx | – | – | – | – | – | – | – | – | – | – | – | – | – | – | – | O=C[C@H](O)[C@@H](O)[C@H](O)[C@H](O)CO [D-glucose] |
| 3.85e-06 | 3e-07 | 2.91e-06 | 1.31e-06 | – | – | – | – | – | – | – | – | – | – | – | – | – | – | – | – | C[C@]12CCC(=O)C=C1CC[C@@H]1[C@@H]2[C@@H](O)C[C@@]2(C)[C@H]1CC[C@]2(O)C(=O)CO [hydrocortisone] |
| – | – | – | – | – | k12 = .839 | k21 = .67 | k_elim = .161 | 76,800 ml | 0.839 | 0.670 | 0.161 | 3-20% | 0.55 | 1.43 | 0.59 | 1.43 | no in vivo biotransformation | poorly absorbed | – | Nc1nc2c(ncn2COC(CO)CO)c(=O)[nH]1.[Na] [Gancyclovir, 9-(1,3-dihydroxy-2-propoxymethyl)guanine, monosodium salt] |
| 5.53e-06 | 1.73e-06 | 4.02e-06 | 3.54e-06 | Passive Paracellular | – | – | – | – | – | – | – | – | – | – | – | – | – | – | approximately 10% | OC[C@@H](O)[C@@H](O)[C@H](O)[C@H](O)CO [mannitol] |
